Data set [1] can be described thus: Dispersive surface energy by inverse gas chromatography (IGC). Conditions: IGC at 25° C., 0% RH, FIG. 1. The data set is classed as physicochemical. The method, then: The surface energies were measured by inverse gas chromatography (IGC). All analyses were carried out using the SMS-iGC 2000 and the SMS-iGC v1.3 standard analysis suite and SMS-iGC v1.21 advanced analysis suite of macros. A flame ionization detector (FID) was used to determine the retention times. The samples were stored in a cold (˜5° C.), dry environment until run on the IGC. For all experiments, the powders were packed into a silanized glass column (300 mm long by 4 mm diameter) using the SMS Column Packing Accessory. All columns were analyzed 3 times sequentially to check for irreversible chemisorption effects and equilibrium after preconditioning.
In this study, the columns were pre-treated for 2 hours at 25° C. and 0% RH in a helium carrier gas to condition the sample. Then, the surface energy measurements were performed at 25° C. (3 times sequentially with a 2-hour conditioning between runs). All experiments were carried out at 10 sccm total flow rate of helium, and injection vapor concentration of 0.03 P/0 for all elutants.

The conditions of data set [2]: cited from earlier work.

The text below walks through data of patent US20190216731A1, “PROCESS FOR PROVIDING PARTICLES WITH REDUCED ELECTROSTATIC CHARGES” (Chiesi Farmaceutici S.p.A., priority 2010, published 2019).

On to `O.OC[C@H]1O[C@@H](O[C@H]2[C@H](O)[C@@H](O)[C@@H](O)O[C@@H]2CO)[C@H](O)[C@@H](O)[C@H]1O` [Meggle D30 reference, α-lactose monohydrate], for which, in data set [1], the dispersive surface energy was found to be 41.8 mJm^−2. Also, the “dispersive surface energy, values reported in the literature” value in data set [2] was 41 mJm^−2.
magnesium stearate came in with a dispersive surface energy in data set [1] of 42.1 mJm^−2. Besides, the “dispersive surface energy, values reported in the literature” value in data set [2] is recorded as 41 mJm^−2.
